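Results reflect a 48-hour exposure of cells in 96-well plates to compound at five concentrations. GI50 marks 50% less growth.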 Activity calls are given as the source filed them. Rule as the data show it: active = GI50 up to about 1.1 µM and inactive = higher.
Experiments:
Experiment in all cases: growth of human tumour cells (NCI), 48 h
RPMI-8226 = test system: RPMI-8226
M14 = test system: M14
SK-MEL-28 = test system: SK-MEL-28
ACHN = test system: ACHN
PC-3 = test system: PC-3
SNB-75 = test system: SNB-75
HL-60 = test system: HL-60
IGROV-1 = test system: IGROV-1
Hs-578T = test system: Hs-578T
HOP-62 = test system: HOP-62
A498 = test system: A498
OVCAR-5 = test system: OVCAR-5
HCT-15 = test system: HCT-15
SN12C = test system: SN12C
A549 = test system: A549
HT-29 = test system: HT-29
MOLT-4 = test system: MOLT-4
COLO 205 = test system: COLO 205
EKVX = test system: EKVX
SW-620 = test system: SW-620
SK-MEL-5 = test system: SK-MEL-5
K562 = test system: K562
UACC-62 = test system: UACC-62
NCI-H226 = test system: NCI-H226
MDA-N = test system: MDA-N
OVCAR-8 = test system: OVCAR-8
786-0 = test system: 786-0
U-251 = test system: U-251
KM12 = test system: KM12
BT-549 = test system: BT-549
UO-31 = test system: UO-31
HCC 2998 = test system: HCC 2998
RXF 393 = test system: RXF 393
SK-MEL-2 = test system: SK-MEL-2
SR = test system: SR
NCI-H460 = test system: NCI-H460
Malme-3M = test system: Malme-3M
HOP-92 = test system: HOP-92
SNB-19 = test system: SNB-19
MCF7 = test system: MCF7
HCT-116 = test system: HCT-116
TK-10 = test system: TK-10
NCI-H23 = test system: NCI-H23
MDA-MB-231 = test system: MDA-MB-231
UACC-257 = test system: UACC-257

## CC(NC(=O)OC(C)(C)C)C(=O)NC(Cc1ccccc1)C(=O)NCC(=O)Oc1c(Cl)c(Cl)c(Cl)c(Cl)c1Cl (stereo not given)
RPMI-8226
  GI50: 23.2 µM (inactive)
M14
  GI50: 26.2 µM (inactive)
SK-MEL-28
  GI50: 20.7 µM (inactive)
ACHN
  GI50: 25 µM (inactive)
PC-3
  GI50: 20.3 µM (inactive)
SNB-75
  GI50: 34.6 µM (inactive)
HL-60
  GI50: 24.7 µM (inactive)
IGROV-1
  GI50: 22.8 µM (inactive)
Hs-578T
  GI50: 37.5 µM (inactive)
HOP-62
  GI50: 18.7 µM (inactive)
A498
  GI50: 21.2 µM (inactive)
OVCAR-5
  GI50: 19 µM (inactive)
HCT-15
  GI50: > 10 µM
SN12C
  GI50: 14.5 µM (inactive)
A549
  GI50: 19.5 µM (inactive)
HT-29
  GI50: 23.7 µM (inactive)
MOLT-4
  GI50: 23.2 µM (inactive)
COLO 205
  GI50: 29.7 µM (inactive)
EKVX
  GI50: 17.8 µM (inactive)
SW-620
  GI50: 20.1 µM (inactive)
SK-MEL-5
  GI50: 13.6 µM (inactive)
K562
  GI50: 30.6 µM (inactive)
UACC-62
  GI50: 22.3 µM (inactive)
NCI-H226
  GI50: 17.7 µM (inactive)
MDA-N
  GI50: 28.2 µM (inactive)
OVCAR-8
  GI50: 19.6 µM (inactive)
786-0
  GI50: 21.2 µM (inactive)
U-251
  GI50: 19.7 µM (inactive)
KM12
  GI50: 25 µM (inactive)
BT-549
  GI50: 23.5 µM (inactive)
UO-31
  GI50: 14.2 µM (inactive)
HCC 2998
  GI50: 15.3 µM (inactive)
RXF 393
  GI50: 17.2 µM (inactive)
SK-MEL-2
  GI50: 20.7 µM (inactive)
SR
  GI50: 25 µM (inactive)
NCI-H460
  GI50: 25.6 µM (inactive)
Malme-3M
  GI50: 20.7 µM (inactive)
HOP-92
  GI50: 12.5 µM (inactive)
SNB-19
  GI50: 29.3 µM (inactive)
MCF7
  GI50: 21.9 µM (inactive)
HCT-116
  GI50: 19.6 µM (inactive)
TK-10
  GI50: 27 µM (inactive)
NCI-H23
  GI50: 18.7 µM (inactive)
MDA-MB-231
  GI50: 16.6 µM (inactive)
UACC-257
  GI50: 20 µM (inactive)

From ChEMBL document CHEMBL1201862, “PubChem BioAssay data set” (2004)
